Laboratory results: the NIST ThermoML archive (doi:10.1021/je700260f)

Settings: 293.15 K, Liquid, Vibrating tube method

FC(C(F)(F)F)C(F)(F)F [1,1,1,2,3,3,3-heptafluoropropane]
Settings | mass density [kg/m3]
11786 kPa | 1474.1
11826 kPa | 1474.2
11860 kPa | 1474.3
11894 kPa | 1474.6
11934 kPa | 1474.7
11967 kPa | 1474.9
12017 kPa | 1475.1
12045 kPa | 1475.2
12079 kPa | 1475.4
12119 kPa | 1475.5
12156 kPa | 1475.8
12195 kPa | 1475.9
12235 kPa | 1476.1
12280 kPa | 1476.3
12314 kPa | 1476.4
12354 kPa | 1476.7
12388 kPa | 1476.9
12422 kPa | 1476.9
12468 kPa | 1477.1
12502 kPa | 1477.4
12549 kPa | 1477.5
12591 kPa | 1477.7
12626 kPa | 1477.9
12670 kPa | 1478
12710 kPa | 1478.2
12745 kPa | 1478.3
12888 kPa | 1479
12980 kPa | 1479.5
13020 kPa | 1479.6
13072 kPa | 1479.9
13099 kPa | 1480
13131 kPa | 1480.1
13163 kPa | 1480.3
13195 kPa | 1480.5
13233 kPa | 1480.6
13264 kPa | 1480.7
13307 kPa | 1480.8
13344 kPa | 1481.1
13371 kPa | 1481.1
13408 kPa | 1481.4
13440 kPa | 1481.4
13489 kPa | 1481.8
13521 kPa | 1481.8
13564 kPa | 1482
13606 kPa | 1482.2
13649 kPa | 1482.4
13687 kPa | 1482.5
13719 kPa | 1482.6
13758 kPa | 1482.8
13797 kPa | 1482.9
13824 kPa | 1483.2
13857 kPa | 1483.3
13891 kPa | 1483.4
13930 kPa | 1483.6
13963 kPa | 1483.7
14065 kPa | 1484.2
14101 kPa | 1484.3
14128 kPa | 1484.5
14165 kPa | 1484.6
14192 kPa | 1484.8
14223 kPa | 1484.9
14249 kPa | 1484.9
14285 kPa | 1485
14316 kPa | 1485.3
14339 kPa | 1485.3
14370 kPa | 1485.5
14403 kPa | 1485.6
14431 kPa | 1485.7
14462 kPa | 1485.9
14489 kPa | 1486
14520 kPa | 1486.2
14557 kPa | 1486.3
14598 kPa | 1486.4
14635 kPa | 1486.6
14673 kPa | 1486.7
14705 kPa | 1487
14732 kPa | 1486.9
14759 kPa | 1487.1
14795 kPa | 1487.3
14831 kPa | 1487.5
14872 kPa | 1487.5
14913 kPa | 1487.8
14940 kPa | 1487.9
14973 kPa | 1488
15005 kPa | 1488.2
15038 kPa | 1488.2
15080 kPa | 1488.6
15103 kPa | 1488.6
15144 kPa | 1488.7
15181 kPa | 1488.9
15209 kPa | 1488.8
15237 kPa | 1489.1
15270 kPa | 1489.2
15298 kPa | 1489.5
15335 kPa | 1489.4
15363 kPa | 1489.7
15398 kPa | 1489.7
15425 kPa | 1489.9
15467 kPa | 1490.1
15504 kPa | 1490.2
15527 kPa | 1490.4
15569 kPa | 1490.6
15611 kPa | 1490.8
15639 kPa | 1490.9
15672 kPa | 1490.8
15719 kPa | 1491.1
15747 kPa | 1491.3
15777 kPa | 1491.4
15814 kPa | 1491.4
15837 kPa | 1491.6
15880 kPa | 1491.9
15913 kPa | 1492
15942 kPa | 1492.2
15975 kPa | 1492.2
16018 kPa | 1492.4
16046 kPa | 1492.3
16079 kPa | 1492.7
16118 kPa | 1492.8
16153 kPa | 1493
16181 kPa | 1493.1
16215 kPa | 1493.2
16244 kPa | 1493.2
16277 kPa | 1493.6
16315 kPa | 1493.7
16344 kPa | 1493.7
16377 kPa | 1493.9
16411 kPa | 1493.9
16446 kPa | 1494.1
16474 kPa | 1494.1
16503 kPa | 1494.3
16532 kPa | 1494.4
16734 kPa | 1495.3
16772 kPa | 1495.4
16831 kPa | 1495.6
16865 kPa | 1495.9
16904 kPa | 1496
16934 kPa | 1496.2
16964 kPa | 1496.2
16998 kPa | 1496.3
17038 kPa | 1496.5
17068 kPa | 1496.6
17113 kPa | 1496.7
17158 kPa | 1497
17183 kPa | 1497.1
17228 kPa | 1497.2
17263 kPa | 1497.4
17293 kPa | 1497.5
17334 kPa | 1497.7
17375 kPa | 1497.8
17405 kPa | 1498
17450 kPa | 1498.2
17485 kPa | 1498.2
17520 kPa | 1498.5
17555 kPa | 1498.5
17654 kPa | 1498.9
17694 kPa | 1499.1
17726 kPa | 1499.2
17756 kPa | 1499.4
17801 kPa | 1499.4
17831 kPa | 1499.5
17856 kPa | 1499.6
17902 kPa | 1499.9
17933 kPa | 1499.9
17969 kPa | 1500.2
18004 kPa | 1500.4
18044 kPa | 1500.5
18075 kPa | 1500.4
18124 kPa | 1500.8
18164 kPa | 1500.9
18194 kPa | 1501.1
18235 kPa | 1501.3
18276 kPa | 1501.4
18313 kPa | 1501.5
18349 kPa | 1501.6
18391 kPa | 1501.8
18428 kPa | 1502
18459 kPa | 1502
18502 kPa | 1502.3
18544 kPa | 1502.5
18574 kPa | 1502.5
18611 kPa | 1502.7
18650 kPa | 1502.7
18678 kPa | 1502.9
18720 kPa | 1503.1
18753 kPa | 1503.1
18785 kPa | 1503.3
18822 kPa | 1503.5
18859 kPa | 1503.7
18888 kPa | 1503.6
18925 kPa | 1503.8
18953 kPa | 1503.9
18981 kPa | 1504.1
19018 kPa | 1504.2
19055 kPa | 1504.4
19084 kPa | 1504.5
19116 kPa | 1504.5
19145 kPa | 1504.6
19183 kPa | 1504.8
19210 kPa | 1505
19243 kPa | 1505
19282 kPa | 1505.2
19320 kPa | 1505.4
19349 kPa | 1505.5
19392 kPa | 1505.6
19430 kPa | 1505.9
19460 kPa | 1505.8
